Experimental findings from patent US20260184726A1, “HETEROCYCLIC COMPOUNDS AS KINASE INHIBITORS, COMPOSITIONS, AND METHODS OF USE THEREOF” (JS INNOMED HOLDINGS LTD., priority 2022, published 2026) are described below.

One experiment deals with T1, BAF3-KIF5B-RET cells (Homo sapiens, UniProt P07949).
T1 construct: fused on or other part: P33176 (Kinesin-1 heavy chain)
Nature of the experiment: BAF3-KIF5B-RET Cell Proliferation Assay (CellTiter-Glo). It is filed as cell-based. The following applies: growth inhibition, 72 hours; Table 2; read-out: BA/F3-KIF5B-RET Cellular activity. In a few lines:
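Ba/F3 cells driven by KIF5B-RET (wild-type, V804M or G810R) or TEL-RET-M918T, 2,000 per well in RPMI/10% FBS, attached 24 h. Treated 72 h at 37° C with compound from 0.00015 to 1 μM final, 0.1% DMSO. CellTiter-Glo luminescence relative to DMSO wells gave IC50.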
(In general: Cellular ATP, detected with luciferase, serves as a proxy for viable cell number.)

For another experiment, the target named is T2, human Aurora B kinase (Homo sapiens, UniProt Q96GD4).
T2 construct: purchased Carna 05-102
T2 sequence (Q96GD4 whole entry): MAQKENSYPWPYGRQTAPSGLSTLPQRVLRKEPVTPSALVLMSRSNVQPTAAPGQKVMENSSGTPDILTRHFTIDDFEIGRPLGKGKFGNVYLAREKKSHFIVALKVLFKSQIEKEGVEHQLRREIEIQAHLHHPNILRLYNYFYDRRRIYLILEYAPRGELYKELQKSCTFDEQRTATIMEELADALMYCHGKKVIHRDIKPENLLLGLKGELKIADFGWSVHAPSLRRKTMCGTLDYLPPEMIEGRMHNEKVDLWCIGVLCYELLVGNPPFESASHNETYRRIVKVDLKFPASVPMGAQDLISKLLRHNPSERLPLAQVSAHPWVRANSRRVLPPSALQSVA
T2 sequence (Q9NQS7 803-918 partner limits assumed): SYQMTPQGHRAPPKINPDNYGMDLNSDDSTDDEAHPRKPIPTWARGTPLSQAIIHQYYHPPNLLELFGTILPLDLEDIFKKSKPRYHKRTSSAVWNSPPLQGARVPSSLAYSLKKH
The experiment in a line: Aurora B Kinase Assay (mobility shift assay, ATP at Km). It is filed as biochemical. The note with it: 15 μM ATP (Km), read-out: AurB Enzymatic Activity.

T1 sequence (P07949 whole entry, change not shown, the tested form may be a part): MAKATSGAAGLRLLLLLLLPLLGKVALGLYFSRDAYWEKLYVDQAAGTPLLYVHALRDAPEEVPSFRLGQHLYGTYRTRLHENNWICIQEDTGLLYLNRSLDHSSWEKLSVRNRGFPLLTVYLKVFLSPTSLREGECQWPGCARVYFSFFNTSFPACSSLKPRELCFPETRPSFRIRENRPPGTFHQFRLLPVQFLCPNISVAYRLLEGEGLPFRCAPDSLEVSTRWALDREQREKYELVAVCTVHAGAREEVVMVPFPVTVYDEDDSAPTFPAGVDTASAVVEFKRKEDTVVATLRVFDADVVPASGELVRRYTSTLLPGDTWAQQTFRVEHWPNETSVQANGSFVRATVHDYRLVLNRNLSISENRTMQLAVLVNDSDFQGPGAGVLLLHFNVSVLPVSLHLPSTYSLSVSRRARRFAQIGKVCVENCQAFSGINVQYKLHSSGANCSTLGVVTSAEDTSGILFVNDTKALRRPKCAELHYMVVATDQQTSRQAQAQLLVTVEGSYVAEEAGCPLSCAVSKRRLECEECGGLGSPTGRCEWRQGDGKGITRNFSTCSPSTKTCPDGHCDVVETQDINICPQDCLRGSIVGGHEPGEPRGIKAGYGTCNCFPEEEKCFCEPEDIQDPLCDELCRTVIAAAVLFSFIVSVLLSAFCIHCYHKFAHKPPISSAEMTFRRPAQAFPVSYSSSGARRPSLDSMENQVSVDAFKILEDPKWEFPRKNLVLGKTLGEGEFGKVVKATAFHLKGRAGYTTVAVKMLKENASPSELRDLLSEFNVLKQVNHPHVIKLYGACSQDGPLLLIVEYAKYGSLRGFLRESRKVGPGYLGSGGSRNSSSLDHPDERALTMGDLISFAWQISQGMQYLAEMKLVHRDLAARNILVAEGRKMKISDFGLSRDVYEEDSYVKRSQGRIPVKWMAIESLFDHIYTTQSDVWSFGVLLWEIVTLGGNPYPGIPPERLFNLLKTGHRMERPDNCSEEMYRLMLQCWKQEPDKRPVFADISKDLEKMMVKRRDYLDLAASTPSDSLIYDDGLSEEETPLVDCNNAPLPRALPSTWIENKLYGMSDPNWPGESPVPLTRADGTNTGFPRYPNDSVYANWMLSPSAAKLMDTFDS

As to `COc1ccc(CN2C3CC2CN(c2ccc(-c4cc(-c5ccc(C(C)(C)NC(C)=O)cn5)cn5ncc(C#N)c45)cn2)C3)cn1` [Example 12, N-(2-(6-(3-cyano-4-(6-(6-((6-methoxypyridin-3-yl)methyl)-3,6-diazabicyclo[3.1.1]heptan-3-yl)pyridin-3-yl)pyrazolo[1,5-a]pyridin-6-yl)pyridin-3-yl)propan-2-yl)acetamide], the GI50 on BAF3-KIF5B-RET cells stood at 1 nM. In addition, at human Aurora B kinase, the IC50 was found to be 25.2 nM.
